The source of these data is ChEMBL document CHEMBL5303573, “Mapping human microbiome drug metabolism by gut bacteria and their genes” (Nature, 2019).

Data set [1] is described as follows: The drug is tested on Anaerotruncus colihominis strain: DSM17241 for biotransformation. The drug concentrations were measured before and after a 12-h incubation by liquid-chromatography-coupled mass spectrometry (LC–MS). To be noted: 2 µM.
Data set [2] in a line: The drug is tested on Clostridium hathewayi strain: DSM13479 for biotransformation. The drug concentrations were measured before and after a 12-h incubation by liquid-chromatography-coupled mass spectrometry (LC–MS). As to conditions: hungatella hathewayi, 2 µM.
The nature of data set [3]: The drug is tested on Clostridium spiroforme strain: DSM1552 for biotransformation. The drug concentrations were measured before and after a 12-h incubation by liquid-chromatography-coupled mass spectrometry (LC–MS). To be noted: thomasclavelia spiroformis, 2 µM.
The conditions of data set [4]: bifidobacterium adolescentis, 12 h, 2 µM.
The conditions of data set [5]: parabacteroides johnsonii, 12 h, 2 µM.
Description: The drug is tested on Parabacteroides johnsonii strain: DSM18315 for biotransformation. The drug concentrations were measured before and after a 12-h incubation by liquid-chromatography-coupled mass spectrometry (LC–MS)
For data set [6] the following is noted: clostridioides difficile, 12 h, 2 µM.
Description: The drug is tested on Clostridium difficile strain: 120 for biotransformation. The drug concentrations were measured before and after a 12-h incubation by liquid-chromatography-coupled mass spectrometry (LC–MS)
The conditions of data set [7]: victivallis vadensis, 12 h, 2 µM.
The nature of data set [8]: The drug is tested on Clostridium ramosum strain: DSM1402 for biotransformation. The drug concentrations were measured before and after a 12-h incubation by liquid-chromatography-coupled mass spectrometry (LC–MS). As to conditions: thomasclavelia ramosa, 2 µM.
A short description of data set [9]: The drug is tested on Salmonella typhimurium strain: LT2 for biotransformation. The drug concentrations were measured before and after a 12-h incubation by liquid-chromatography-coupled mass spectrometry (LC–MS). As to conditions: salmonella enterica subsp. enterica, 2 µM.
For data set [10] the following is noted: bacteroides fragilis, 12 h, 2 µM.
Description: The drug is tested on Bacteroides fragilis strain: 3397 (T10) for biotransformation. The drug concentrations were measured before and after a 12-h incubation by liquid-chromatography-coupled mass spectrometry (LC–MS)
The nature of data set [11]: The drug is tested on Proteus penneri strain: ATCC35198 for biotransformation. The drug concentrations were measured before and after a 12-h incubation by liquid-chromatography-coupled mass spectrometry (LC–MS). To be noted: 2 µM.
Data set [12] can be described thus: The drug is tested on Bacteroides fragilis strain: T(B)9 for biotransformation. The drug concentrations were measured before and after a 12-h incubation by liquid-chromatography-coupled mass spectrometry (LC–MS). To be noted: 2 µM.
The nature of data set [13]: The drug is tested on Eubacterium biforme strain: DSM3989 for biotransformation. The drug concentrations were measured before and after a 12-h incubation by liquid-chromatography-coupled mass spectrometry (LC–MS). To be noted: holdemanella biformis, 2 µM.
A short description of data set [14]: The drug is tested on Providencia alcalifaciens strain: DSM30120 for biotransformation. The drug concentrations were measured before and after a 12-h incubation by liquid-chromatography-coupled mass spectrometry (LC–MS). As to conditions: 2 µM.
Data set [15] in a line: The drug is tested on Eggerthella lenta strain: ATCC25559 for biotransformation. The drug concentrations were measured before and after a 12-h incubation by liquid-chromatography-coupled mass spectrometry (LC–MS). To be noted: 2 µM.

Each structure is given as a SMILES string.

`CCCCC1=NC2(CCCC2)C(=O)N1Cc1ccc(-c2ccccc2-c2nnn[nH]2)cc1` [IRBESARTAN]: the “Bacterial Biotransformation” value in data set [1] is “Compound metabolized”; in data set [2] it was “Compound metabolized”; in data set [3], “Compound metabolized”; in data set [4] it was “Compound metabolized”; in [5], “Compound metabolized”; in [6] it was “Compound NOT metabolized”. Besides, the “Bacterial Biotransformation” value in [7] was “Compound NOT metabolized”.

For `O=c1[nH]c2ccccc2n1C1CCN(CCCC(c2ccc(F)cc2)c2ccc(F)cc2)CC1` [PIMOZIDE], the “Bacterial Biotransformation” value in [1] is recorded as “Compound metabolized”; in data set [8], “Compound NOT metabolized”; in data set [9] it was “Compound NOT metabolized”; in data set [4] it was “Compound NOT metabolized”; in data set [10], “Compound NOT metabolized”; in data set [5] it was “Compound NOT metabolized”. Also, the “Bacterial Biotransformation” value in data set [7] is “Compound NOT metabolized”.

For the compound `Nc1c2c(nc3ccccc13)CCCC2` [TACRINE], the “Bacterial Biotransformation” value in data set [1], in [2], in [8], in data set [3], in data set [11] and in [9] was “Compound NOT metabolized” each time. The “Bacterial Biotransformation” value in [4] and in data set [6] was “Compound NOT metabolized” in each case.

`COc1ccc(CCN(C)CCCC(C#N)(c2ccc(OC)c(OC)c2)C(C)C)cc1OC` (centres undefined): the “Bacterial Biotransformation” value is recorded as “Compound NOT metabolized” in data set [12]; “Compound NOT metabolized” in [1]; “Compound NOT metabolized” in [13]; “Compound NOT metabolized” in data set [11]; “Compound NOT metabolized” in data set [14]; “Compound metabolized” in data set [9]. The “Bacterial Biotransformation” value in [4] and in [7] was “Compound NOT metabolized” in each case.

`OC(CCN1CCCCC1)(c1ccccc1)C1CCCCC1` (centres undefined) [TRIHEXYPHENIDYL]: the “Bacterial Biotransformation” value in data set [1], in data set [3], in [13], in data set [11], in data set [14] and in data set [4] was “Compound NOT metabolized” each time. Besides, the “Bacterial Biotransformation” value in data set [10] and in [5] was “Compound NOT metabolized” each time.

With `OCCOCCN1CCN(C2=Nc3ccccc3Sc3ccccc32)CC1` [QUETIAPINE], the “Bacterial Biotransformation” value in [1], in data set [2], in [13], in data set [11], in [14] and in data set [9] was “Compound NOT metabolized” each time. The “Bacterial Biotransformation” value in data set [4], in data set [10] and in data set [7] was “Compound NOT metabolized” in each case.

With `O=C1C(CC[S+]([O-])c2ccccc2)C(=O)N(c2ccccc2)N1c1ccccc1` (centres undefined) [SULFINPYRAZONE], the “Bacterial Biotransformation” value is on record as “Compound metabolized” in [15]; “Compound NOT metabolized” in data set [1]; “Compound NOT metabolized” in [2]; “Compound NOT metabolized” in [3]; “Compound NOT metabolized” in [4]; “Compound NOT metabolized” in data set [10]. Also, the “Bacterial Biotransformation” value in [5] and in data set [7] was “Compound NOT metabolized” each time.

`N#Cc1ccc2[nH]cc(CCCCN3CCN(c4ccc5oc(C(N)=O)cc5c4)CC3)c2c1` [VILAZODONE]: the “Bacterial Biotransformation” value in [12] is recorded as “Compound metabolized”; in data set [1], “Compound NOT metabolized”; in data set [2], “Compound NOT metabolized”; in data set [3] it was “Compound metabolized”; in data set [13] it was “Compound NOT metabolized”; in data set [11] it was “Compound NOT metabolized”. The “Bacterial Biotransformation” value in [14] is given as “Compound NOT metabolized”; in data set [9], “Compound NOT metabolized”; in data set [4], “Compound NOT metabolized”; in data set [10], “Compound metabolized”; in data set [5], “Compound metabolized”.

Take `O=C([O-])C[C@H](O)C[C@H](O)/C=C/c1c(C2CC2)nc2ccccc2c1-c1ccc(F)cc1.O=C([O-])C[C@H](O)C[C@H](O)/C=C/c1c(C2CC2)nc2ccccc2c1-c1ccc(F)cc1.[Ca+2]` [PITAVASTATIN CALCIUM]: the “Bacterial Biotransformation” value in data set [15], in [1], in [8], in data set [3], in data set [4] and in data set [10] was “Compound NOT metabolized” throughout. Moreover, the “Bacterial Biotransformation” value in data set [5], in [6] and in data set [7] was “Compound NOT metabolized” in each case.

In the case of `CN1C(C(=O)Nc2ccccn2)=C(O)c2sccc2S1(=O)=O` [TENOXICAM], the “Bacterial Biotransformation” value in data set [12], in data set [2], in [8], in [3], in [13] and in data set [11] was “Compound NOT metabolized” each time. Further, the “Bacterial Biotransformation” value in [4], in [10], in data set [5] and in data set [7] was “Compound NOT metabolized” each time.

On to `Cc1nc(-c2ccc(OCC(C)C)c(C#N)c2)sc1C(=O)O` [FEBUXOSTAT], for which the “Bacterial Biotransformation” value in data set [12] is “Compound metabolized”; in [1], “Compound NOT metabolized”; in data set [2] it was “Compound NOT metabolized”; in data set [3], “Compound NOT metabolized”; in data set [13], “Compound NOT metabolized”; in data set [14] it was “Compound NOT metabolized”. The “Bacterial Biotransformation” value in [9] was “Compound NOT metabolized”; in [4] it was “Compound NOT metabolized”; in data set [10], “Compound metabolized”; in data set [6], “Compound NOT metabolized”.

As for `COC1=CC(=O)C[C@@H](C)[C@]12Oc1c(Cl)c(OC)cc(OC)c1C2=O` [GRISEOFULVIN], the “Bacterial Biotransformation” value is “Compound NOT metabolized” in [15]; “Compound metabolized” in data set [12]; “Compound NOT metabolized” in data set [1]; “Compound NOT metabolized” in [2]; “Compound NOT metabolized” in [11]; “Compound NOT metabolized” in data set [9]. For the same compound, the results for the “Bacterial Biotransformation” value in [4], in [10] and in [7] were “Compound NOT metabolized”, “Compound metabolized” and “Compound NOT metabolized”, respectively.

For `CC(C)(C)NC[C@H](O)COc1nsnc1N1CCOCC1.O=C(O)/C=C\C(=O)O` [TIMOLOL MALEATE], the “Bacterial Biotransformation” value in data set [1], in [2], in data set [3], in data set [4], in data set [10] and in [5] was “Compound NOT metabolized” in each case. The “Bacterial Biotransformation” value in [6] is “Compound NOT metabolized”.

For `CC(C)OC(=O)C(C)(C)Oc1ccc(C(=O)c2ccc(Cl)cc2)cc1` [FENOFIBRATE], the “Bacterial Biotransformation” value in data set [1] is “Compound metabolized”; in [2], “Compound metabolized”; in data set [8] it was “Compound NOT metabolized”; in [3], “Compound NOT metabolized”; in [4], “Compound NOT metabolized”; in data set [10], “Compound NOT metabolized”. For the same compound, the “Bacterial Biotransformation” value in data set [5] and in data set [6] was “Compound metabolized” throughout.
